# US9708307B2, “Heterocyclic acetamide compound” (ASTELLAS PHARMA INC., priority 2013, dated 2017)
# Target: T1, dopamine D1 receptor (Homo sapiens, UniProt P21728)
# T1 construct: expressed in transfected cells
# Assay: Evaluation of positive allosteric modulating activity: leftward shift of dopamine dose-response curve (cAMP) in CHO cells stably expressing human dopamine D1 receptor
# Format: cell-based
# Details: extrapolated by linear function from dopamine EC50 at each test drug concentration
# Procedure: The composition of a buffer used in Test Example 1 is as follows.
# Buffer for assay=αMEM containing 1 μM IBMX.
# Buffer for dilution=αMEM containing 1 μM IBMX and 0.8 mM ascorbic acid.
# The positive allosteric modulating activity of the compound of the present invention was evaluated according to the ratio of the leftward shift in a dopamine dose-response curve.
# The leftward shift means that a dose-response curve of dopamine, in which the logarithm of a dose is on the horizontal axis (X-axis) and a response (cAMP concentration in this test) is on the vertical axis (Y-axis), shifts in parallel in the negative direction of the X-axis by the administration of a positive allosteric modulator.
# The coding sequences of a dopamine D1 receptor in a human (Accession No.: NM_000794.3) were amplified by PCR and subcloned into a pEF-BOS vector. The resulting construct was transfected to CHO (-dhrf) cells (ATCC No.: CRL-9096) using Lipofectamine 2000 (Invitrogen Inc.). The clones stably transfected were obtained by selection using 100 nM MTX. The obtained cell clones were maintained in αMEM containing 10% FBS, 1 mg/mL penicillin, and 1 U/streptomycin.
# Dose-Response Curve of Dopamine Using test drug was drawn on the basis of the following experiments.
# A buffer for assay of a test drug was serially diluted (concentrations 0.48 μM to 40 μM, 3-fold dilutions). The serially diluted solutions of the test drug were dispensed in each portion of 2.5 μL to black 384-well plates (Becton Dickinson, Inc.).
# CHO cells stably expressing a dopamine D receptor of a human were seeded in each portion of 5 μL in each well at a density of 5000 cells/well, centrifuged in a centrifuge for a plate (05PR-22, Hitachi Co., Ltd., 800 rpm), and then allowed to stand for 10 minutes.
# Serially diluted solutions of dopamine were prepared from a DMSO solution of dopamine (Sigma Co.) with a buffer for dilutions (concentrations 0.018 μM to 13.2 μM, 3-fold dilutions), and the serially diluted solutions of dopamine were dispensed in portions of 2.5 μL to each well of a plate.
# The plate was stirred using a plate shaker (Sanko Junyaku (mx-5)) and then allowed to stand at room temperature for 20 minutes (final concentration: test drug 0 μM to 10 μM, dopamine 0 μM to 3.3 μM, 3-fold dilutions).
# cAMP was quantified using a cAMP femto 2 kit (Sceti Medical Labo K. K.) by the method described in the materials appended in the kit. A kit reagent cAMP-d2 solution and a kit reagent Anti cAMP-Cryptate solution were added in each portion of 5 μL to each well of the above-described plate, and the reaction was stopped. After incubating the plate at room temperature for 1 hour, the fluorescent intensity was measured (an excitation wavelength of 320 nm and a fluorescent wavelength of 665 nm) using a plate reader (2103 Multilabel Reader (registered trademark EnVision), PerkinElmer, Inc.).
# As a control group, a well without addition of dopamine was taken as 0% and a well with a dopamine final concentration of 3.3 μM was taken as 100%.
# The dose-response curve of dopamine was drawn on the basis of the experiment carried out in the same manner as in (1) without the addition of a test drug.
# In order to quantitatively compare the activity of the test drug, the activity was evaluated by EC50 2-fold potentiation.
# In the present specification, “EC50 2-fold potentiation” is the test drug concentrations that enhanced the EC50 two-fold in the dose-response curve (2) of dopamine.
# From the dose-response curve (1) of dopamine in the presence of the test drug at each concentration, the EC50 at the test drug concentration was obtained. From the correlation between the concentration of the test drug and the EC50, EC50 2-fold potentiation was calculated by extrapolation by a linear function (straight line).
# Further, the EC50 value was calculated from the dose-response curves (1) and (2) of dopamine, using non-linear regression analysis. […]
# T1 sequence (P21728 whole entry): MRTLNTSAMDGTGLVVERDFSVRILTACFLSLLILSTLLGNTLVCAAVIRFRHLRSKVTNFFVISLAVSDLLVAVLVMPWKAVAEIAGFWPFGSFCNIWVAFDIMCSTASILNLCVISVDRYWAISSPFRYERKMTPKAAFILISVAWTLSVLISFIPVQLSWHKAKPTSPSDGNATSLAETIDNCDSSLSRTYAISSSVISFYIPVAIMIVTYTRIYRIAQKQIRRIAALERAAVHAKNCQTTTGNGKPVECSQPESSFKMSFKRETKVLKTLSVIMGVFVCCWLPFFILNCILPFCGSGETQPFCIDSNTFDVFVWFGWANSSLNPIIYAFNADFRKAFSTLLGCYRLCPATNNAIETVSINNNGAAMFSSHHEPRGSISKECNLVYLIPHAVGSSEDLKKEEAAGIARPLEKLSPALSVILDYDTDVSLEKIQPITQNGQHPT
row,Structure (SMILES),Data 1: EC50 2-fold potentiation (test drug concentration that enhanced the dopamine EC50 two-fold) [nM]
1,CN(Cc1nc2cc(Cl)c(F)cc2[nH]1)C(=O)Cn1c(=O)oc2ccc(Cl)cc21.Cl [Example 14],1700
2,CN(Cc1nc2cc(Cl)ccc2[nH]1)C(=O)Cn1c(=O)oc2ccc(OC(F)(F)F)cc21 [Example 26],370
3,CN(Cc1nc2cc(C(F)(F)F)ccc2[nH]1)C(=O)Cn1c(=O)oc2ccc(Cl)c(F)c21 [Example 17],470
4,"CN(Cc1nc2cc(Cl)c(Cl)cc2n1CCO)C(=O)Cn1c(=O)oc2ccc(Cl)cc21.Cl [Example 7, 2-(5-chloro-2-oxo-1,3-benzoxazol-3 (2H)-yl)-N-{[5,6-dichloro-1-(2-hydroxyethyl)-1H-benzimidazol-2-yl]methyl}-N-methylacetamide hydrochloride]",100
5,CN(Cc1nc2cc(Cl)ccc2[nH]1)C(=O)Cn1c(=O)oc2ccc(Cl)cc21.Cl [Example 12],1000
6,"CN(Cc1nc2cc(C(F)(F)F)ccc2[nH]1)C(=O)Cn1c(=O)oc2ccc(Cl)cc21.Cl [Example 1, 2-(5-chloro-2-oxo-1,3-benzoxazol-3 (2H)-yl)-N-methyl-N-{[5-(trifluoromethyl)-1H-benzimidazol-2-yl]methyl}acetamide hydrochloride]",460
7,CN(Cc1nc2cc(Cl)ccc2[nH]1)C(=O)Cn1c(=O)oc2ccc(C(F)(F)F)cc21 [Example 25],450
8,CN(Cc1nc2cc(Br)ccc2[nH]1)C(=O)Cn1c(=O)oc2ccc(Cl)cc21 [Example 20],440
9,CN(Cc1nc2c(C(F)(F)F)cccc2[nH]1)C(=O)Cn1c(=O)oc2ccc(Cl)cc21.Cl [Example 16],620
10,COc1cc2[nH]c(CN(C)C(=O)Cn3c(=O)oc4ccc(Cl)cc43)nc2cc1Br.Cl [Example 15],740
11,CN(Cc1nc2cc(C3CC3)ccc2[nH]1)C(=O)Cn1c(=O)oc2ccc(C(F)(F)F)cc21 [Example 22],390

# Second part, the compound after the results:
row,Data 1: EC50 2-fold potentiation (test drug concentration that enhanced the dopamine EC50 two-fold) [nM],Structure (SMILES)
1,990,CN(Cc1nc2c(Cl)cccc2[nH]1)C(=O)Cn1c(=O)oc2ccc(Cl)cc21 [Example 34]
2,400,CN(Cc1nc2c(C(F)(F)F)cccc2[nH]1)C(=O)Cn1c(=O)oc2ccc(C(F)(F)F)cc21 [Example 39]
3,300,CN(Cc1nc2cc(Cl)c(Cl)cc2n1CC(C)(C)O)C(=O)Cn1c(=O)oc2ccc(Cl)cc21 [Example 37]
4,460,CN(Cc1nc2cc(C(F)(F)F)ccc2[nH]1)C(=O)Cn1c(=O)oc2ccc(C(F)(F)F)c(F)c21 [Example 27]
5,270,Cc1cc2nc(CN(C)C(=O)Cn3c(=O)oc4ccc(Cl)cc43)[nH]c2cc1Cl [Example 30]
6,1100,CN(Cc1nc2cc(OC(F)(F)F)ccc2[nH]1)C(=O)Cn1c(=O)oc2ccc(Cl)cc21 [Example 31]

# System: ddY male mice
# Assay: Y-maze test: improvement effect on cognitive impairment caused by MK-801 (spontaneous alternation behavior)
# Format: in vivo
# Details: oral, once, one hour before test, MK-801 0.15 mg/kg i.p. 20 minutes before
# Procedure: The improvement effect of the compound of the present invention on cognitive impairment was evaluated using a Y-maze test which is an experiment system of alternation behavior.
# As a Y-maze, a maze, in which three tracks having a length of one arm of 40 cm, a height of a wall of 13 cm, a width of a bottom of 3 cm, and a width of a top of 10 cm are each joined in the Y shape at a degree of 120, was used. […]
# The above-described mice were allowed to explore freely for 8 minutes after being placed at an end of one track in the Y-maze, and the track and the sequence in which the mice entered were recorded. The number of times the mice entered within the measurement time was counted, and taken as a total entry number. Among these, a combination in which the mice successively entered different three tracks (for example, when taking three arms as a, b, and c, respectively, a case where the order of the arm that entered was “abccbacab” was counted as 4, inclusive of overlapping) was considered as a spontaneous alternation behavior number. The spontaneous alternation behavior rate was calculated by the following calculation and used as an index for a spontaneous alternation behavior: Spontaneous alternation behavior rate=spontaneous alternation behavior number/(total number of entries−2)×100 […]
# The measured values were expressed in average values±standard errors for each group. […]
row,Structure (SMILES),Data 2: effective concentration (improved the spontaneous alternation behavior) [mg/kg]
1,"CN(Cc1nc2cc(C(F)(F)F)ccc2[nH]1)C(=O)Cn1c(=O)oc2ccc(Cl)cc21.Cl [Example 1, 2-(5-chloro-2-oxo-1,3-benzoxazol-3 (2H)-yl)-N-methyl-N-{[5-(trifluoromethyl)-1H-benzimidazol-2-yl]methyl}acetamide hydrochloride]",0.1
2,CN(Cc1nc2cc(Br)ccc2[nH]1)C(=O)Cn1c(=O)oc2ccc(Cl)cc21 [Example 20],1.0
